We go through one substance from patent US12324827B2, “Combination therapy for the treatment of migraines” (The University of Chicago, priority 2019, dated 2025).

One series has as its system blood CGRP. The series is described as follows: CGRP plasma assay (ELISA) after recurrent spreading depression. Type of series: in vivo, rat. Here is the method:
Blood was collected via cardiac puncture using a 21 gauge syringe needle and transferred into a BD Vacutainer K3 EDTA blood collection tube (366450, Becton, Dickinson & Co., Franklin Lakes, NJ). Samples were spun 1,500 g×10 min at 4° C. The plasma was transferred to sterile 2.0 mL, screw cap, polypropylene tubes and stored at −80° C. until analysis. Plasma samples were sent to Cayman Chemical Company (Ann Arbor, Michigan) for analysis of CGRP content using ELISA methods. According to the vendor, the detection limit is <10 pg/mL.
For orientation: An ELISA detects its analyte on a solid surface through an enzyme-linked reagent.

Series [1] concerns trigeminal ganglion malondialdehyde (MDA). The series is described as follows: Trigeminal ganglion V1 malondialdehyde immunostaining after recurrent CSD, nasal IGF-1 with or without intravenous anti-CGRP antibody (Example 5). Type of series: in vivo, rat. Here is the method: Migraine will be modeled using recurrent CSD (Grinberg et al., 2019; Won and Kraig 2019a,b; Won and Kraig, 2020). Briefly, the day before recurrent CSD, animals are anesthetized with inhalational isoflurane in oxygen (2-5%) and treated with intranasal IGF-1 (150 μg in 50 μl succinate buffer).
The next day (i.e., 20-24 hours later) animals are again be anesthetized as above with inhalational isoflurane and the left femoral vein cannulated for antibody infusion. Select groups of animals (see below) are treated with intravenous infusion either 1 mg/kg anti-CGRP (ab81887) or isotype IgG2a control in 0.5-0.6 ml normal saline. After infusions, the femoral incision is closed with wound clips.
Animals are stabilized for an hour under anesthesia (1.5% isoflurane in oxygen) after head sutures are removed, eyes coated with Artificial Tears and animals made ready for initiation and recording of CSD under deeper (5%) isoflurane in oxygen, which is then lowered back to 1.5% isoflurane in oxygen during CSD recordings. CSD is initiated as described above one to four hours after antibody infusion. All animals receive nine KCl injections. […]
2. […] All animals for nasal delivery of IGF-1 plus intravenous treatment (i.e., one ml saline or anti-CGRP antibody) followed by 90 minutes of evoked CSDs) were analyzed for trigeminal cervical complex c-fos immunostaining and trigeminal ganglion malondialdehyde immunostaining as previously described (Won and Kraig, 2020).
The inventors used a verified method of quantifying immunostaining log-ratios (experimental/sham) as a further means to reduce potential run-to-run variations in immunostaining for malondialdehyde, CGRP and c-fos positive cells (Won and Kraig, 2020). Images of malondialdehyde and CGRP were analyzed in blinded pairs so that they could be converted once decoded to ratios of experimental/sham image integrated optical intensity, a sensitive metric that not only accounts for the area but also the pixel intensity of related image fluorescence.

Series [2] in a line: Blood glucose after nose-to-brain (N2B) delivery of IGF-1. Type of series: in vivo, Wistar rats. Conditions: for blood glucose level: n=4/group; for hypoglycemia: after nasal (N2B) delivery of IGF-1. The protocol:
N2B delivery of 150 μg human recombinant IGF-1 (#191-G1; R&D Systems, Minneapolis, MN) in 50 μL sodium succinate buffer followed the previously described approach (21,51) that was based on the techniques of Liu and coworkers (24) in the recording laboratory under isoflurane anesthesia with spontaneous ventilation.
Blood glucose was monitored in a subset of animals. Immediately before N2B treatments and while anesthetized, blood glucose was sampled at time zero using a sterile, 27 gauge hypodermic needle to puncture the tip of the tail. A second drop of blood from punctures was used for glucose measurements (Contour Next EZ; Ascensia Diabetes Care, US, Inc.; Parsippany, NJ). After N2B treatments (IGF-1 or vehicle), animals were briefly re-anesthetized and maintained as above for each blood draw done over time (i.e., 0.3, 3, 6, and 24 hours).

In series [3] the test system is cortical spreading depression. Nature of the series: Number of cortical spreading depressions evoked over 90 minutes. Type of series: in vivo, rat. The settings on record: CSD stimulus every nine minutes for 90 minutes, an hour after intravenous injection, n=3. The text has this: Animals are stabilized for an hour under anesthesia (1.5% isoflurane in oxygen) after head sutures are removed, eyes coated with Artificial Tears and animals made ready for initiation and recording of CSD under deeper (5%) isoflurane in oxygen, which is then lowered back to 1.5% isoflurane in oxygen during CSD recordings. CSD is initiated as described above one to four hours after antibody infusion. All animals receive nine KCl injections. Then, isoflurane is raised to 5% and animals anesthetized with intraperitoneal ketamine and Xylazine followed quickly by euthanasia via intra-cardiac perfusion with 0.1 mL heparin (1,000 units/ml), then 250 ml of normal saline and finally 250 ml 4% paraformaldehyde in 0.2 M phosphate buffer. Brains plus upper cervical cord and trigeminal ganglia are harvested for measurement of c-fos immunostaining in the trigeminocervical complex and CGRP and oxidative stress (malondialdehyde) levels in the trigeminal ganglion ipsilateral to CSD. Animal groups and endpoints are defined below.
First, the inventors confirmed that there was no significant difference in the number of evoked CSDs between groups (FIG. 16). Sham nasal delivery was, as reported (i.e., 50 μl succinate buffer delivered as 5 μl aliquots to alternating nostrils every two minutes) while under isoflurane inhalational anesthesia (Won and Kraig, 2020). […]

The next series relates to spreading depression. The settings on record: cited from earlier work.

“Also recorded” adds a separate entry of the source.

As for “IGF-1: human recombinant IGF-1 (#191-G1; R&D Systems), 150 μg in 50 μL sodium succinate buffer, delivered nose-to-brain”, in the series on blood CGRP (IGF-1 pretreatment, n=6/group, three samples below the detection limit), the “blood (plasma) CGRP level after recurrent SD” value was 7.7 ± 1.6 pg/mL. Besides, the “changes in blood CGRP levels after pretreatment followed by recurrent SD” value in the series with blood CGRP (IGF-1 versus vehicle) is “no significant (p=0.347, power=0.136) changes”. Besides, the “ln ratio of trigeminal ganglion MDA immunostaining” value in series [1] (nasal IGF-1 alone, as previously reported (Won and Kraig, 2020), n=5) was −1.76±0.29; in series [1] (nasal IGF-1 plus intravenous saline, n=3), −1.75±0.56. Moreover, the “ln ratio of trigeminal ganglion MDA immunostaining, combined groups” value in series [1] (nasal IGF-1 with or without intravenous saline / nasal succinate, n=8) is listed as −1.76±0.39. The blood glucose level amounted to 196 ± 22 mg/dL in series [2] (0.3-hour after N2B IGF-1 150 μg, non-fasted rats); 114 ± 14 mg/dL in series [2] (3.0-hour after N2B IGF-1 150 μg); 134 ± 7 mg/dL in series [2] (6.0-hour after N2B IGF-1 150 μg); 150 ± 40 mg/dL in series [2] (24-hour after N2B IGF-1 150 μg). The hypoglycemia result is reported as “did not induce hypoglycemia; also recorded: did not see evidence of hypoglycemia; also recorded: did not evoke hypoglycemia; also recorded: no evidence of hypoglycemia; also recorded: did not cause hypoglycemia; also recorded: no hypoglycemic effect; also recorded: did not trigger hypoglycemia” in series [2] and “no impact on blood glucose levels occurred” in series [2] (listed as insulin-like growth factor-1). Also, the “lowest IGF-1 glucose-related level seen” value in series [2] (normal range for Wistar rats 85-132 mg/dL, control 132 mg/dL at time 0) is on record as 114 mg/dL. Moreover, in series [3], the “number of CSDs evoked” value was found to be 7±0.41. Moreover, the “protection against SD over sham treatment” value in the series with spreading depression (SD from KCl, pretreatment) is listed as approximately 27 fold. For the same substance, the “spreading depression in whole animals” value in the series with spreading depression (nasal delivery) is “significantly inhibited spreading depression in whole animals”.
